{"source": "ChEMBL document CHEMBL5661983", "about": "“The selective anaplastic lymphoma receptor tyrosine kinase inhibitor ASP3026 induces tumor regression and prolongs survival in non-small cell lung cancer model mice” (Mol Cancer Ther, 2014)", "key": {"[1]": {"biological_target": "T1, ALK tyrosine kinase receptor (Homo sapiens, UniProt Q9UM73)", "T1 sequence (Q9UM73 19-1620 limits assumed)": "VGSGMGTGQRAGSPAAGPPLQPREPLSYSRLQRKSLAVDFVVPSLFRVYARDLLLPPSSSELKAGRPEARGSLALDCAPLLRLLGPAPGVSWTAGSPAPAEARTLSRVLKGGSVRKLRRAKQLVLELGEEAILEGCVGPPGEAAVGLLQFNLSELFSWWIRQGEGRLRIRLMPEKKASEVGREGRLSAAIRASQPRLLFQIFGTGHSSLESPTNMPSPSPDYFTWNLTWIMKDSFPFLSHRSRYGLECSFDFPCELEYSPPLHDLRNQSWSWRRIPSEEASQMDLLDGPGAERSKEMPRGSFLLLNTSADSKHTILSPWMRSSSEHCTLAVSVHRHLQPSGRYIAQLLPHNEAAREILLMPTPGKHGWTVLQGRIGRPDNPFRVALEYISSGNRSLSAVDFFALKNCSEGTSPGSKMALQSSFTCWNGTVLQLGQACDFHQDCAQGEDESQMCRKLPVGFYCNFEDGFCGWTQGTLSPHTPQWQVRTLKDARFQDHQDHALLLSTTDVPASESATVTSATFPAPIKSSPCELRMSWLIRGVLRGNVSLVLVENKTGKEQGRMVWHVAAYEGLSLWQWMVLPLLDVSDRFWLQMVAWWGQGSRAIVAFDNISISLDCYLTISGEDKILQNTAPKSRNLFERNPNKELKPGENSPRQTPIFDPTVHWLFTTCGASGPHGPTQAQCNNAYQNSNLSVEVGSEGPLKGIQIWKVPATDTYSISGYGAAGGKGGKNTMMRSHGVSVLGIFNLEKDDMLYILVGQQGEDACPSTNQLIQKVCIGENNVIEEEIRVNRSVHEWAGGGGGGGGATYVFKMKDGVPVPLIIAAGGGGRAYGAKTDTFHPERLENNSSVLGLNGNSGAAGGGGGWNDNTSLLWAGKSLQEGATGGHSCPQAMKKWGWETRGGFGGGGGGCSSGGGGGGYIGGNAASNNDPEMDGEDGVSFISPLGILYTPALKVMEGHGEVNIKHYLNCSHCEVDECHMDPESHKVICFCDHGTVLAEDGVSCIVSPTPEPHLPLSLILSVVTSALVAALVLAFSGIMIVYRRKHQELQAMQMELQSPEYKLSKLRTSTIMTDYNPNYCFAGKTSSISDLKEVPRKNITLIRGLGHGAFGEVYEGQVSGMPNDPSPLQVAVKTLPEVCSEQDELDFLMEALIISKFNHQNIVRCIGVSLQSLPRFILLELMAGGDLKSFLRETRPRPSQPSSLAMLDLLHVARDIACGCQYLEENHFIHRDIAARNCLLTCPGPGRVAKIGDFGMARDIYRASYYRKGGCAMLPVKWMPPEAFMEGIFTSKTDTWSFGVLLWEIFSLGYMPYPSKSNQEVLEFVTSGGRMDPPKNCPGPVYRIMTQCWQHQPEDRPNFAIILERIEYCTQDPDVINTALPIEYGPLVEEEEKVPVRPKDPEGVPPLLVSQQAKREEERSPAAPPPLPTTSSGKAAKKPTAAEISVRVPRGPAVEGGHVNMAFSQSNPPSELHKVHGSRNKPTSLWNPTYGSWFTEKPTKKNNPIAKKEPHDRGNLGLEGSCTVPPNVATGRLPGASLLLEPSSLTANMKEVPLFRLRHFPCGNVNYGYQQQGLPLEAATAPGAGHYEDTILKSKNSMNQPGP", "assay": "Inhibition of ALK in human NCI-H2228 cells assessed as reduction in ERK phosphorylation by measuring phosphorylated ERK level at 100 nmol/L measured after 4 hrs by Western blot analysis relative to control", "format": "cell-based", "design": "scale not given: the % may be the effect or the level left"}, "[2]": {"biological_target": "T1, ALK tyrosine kinase receptor", "assay": "Inhibition of ALK in human NCI-H2228 cells assessed as reduction in STAT3 phosphorylation by measuring phosphorylated STAT3 level at 10 nmol/L measured after 4 hrs by Western blot analysis relative to control", "format": "cell-based", "design": "scale not given: the % may be the effect or the level left"}, "[3]": {"biological_target": "T1, ALK tyrosine kinase receptor", "assay": "Inhibition of ALK in human NCI-H2228 cells assessed as reduction in STAT3 phosphorylation by measuring phosphorylated STAT3 level at 100 nmol/L measured after 4 hrs by Western blot analysis relative to control", "format": "cell-based", "design": "scale not given: the % may be the effect or the level left"}, "[4]": {"biological_target": "Hepatocyte growth factor receptor (Homo sapiens, UniProt P08581)", "assay": "Inhibition of human N-terminal GST-fused MET cytoplasmic domain ([956 to 1390(end) residues) expressed in baculovirus expression system using Srctide as substrate measured after 1 hr by off-chip mobility shift assay relative to control"}, "[5]": {"system": "NCI-H2228", "assay": "Antitumor activity against human NCI-H2228 cells xenografted in po dosed NOD.CB17-Prkdcscid/J mouse assessed as tumor growth inhibition administered once daily for 2 weeks", "format": "functional, organism-based", "details": "dose 1-30 mg/kg"}, "[6]": {"assay": "In vivo inhibition of ALK autophosphorylation in human NCI-H2228 cell xenografted NOD.CB17-Prkdcscid/J mouse assessed as phosphorylated ALK level at 10 mg/kg, po administered as single dose measured after 4 hrs by immunoblotting method relative to control", "format": "functional", "design": "scale not given: the % may be the effect or the level left"}, "[7]": {"system": "NCI-H2228", "assay": "Antitumor activity against human NCI-H2228 cells xenografted in NOD.CB17-Prkdcscid/J mouse assessed as tumor growth inhibition at 3 mg/kg, po administered once daily for 2 weeks relative to control", "format": "functional", "details": "NCI-H2228, 336 h, read-out: TGI"}, "[8]": {"system": "NCI-H2228", "assay": "Antitumor activity against human NCI-H2228 cells xenografted in NOD.CB17-Prkdcscid/J mouse assessed as tumor growth inhibition at 10 mg/kg, po administered once daily for 2 weeks relative to control", "format": "functional", "details": "NCI-H2228, 336 h, read-out: TGI"}, "[9]": {"system": "NCI-H2228", "assay": "Antitumor activity against human NCI-H2228 cells xenografted in NOD.CB17-Prkdcscid/J mouse assessed as tumor growth inhibition at 30 mg/kg, po administered once daily for 2 weeks relative to control", "format": "functional", "details": "NCI-H2228, 336 h, read-out: TGI"}, "[10]": {"system": "NCI-H2228", "assay": "Antitumor activity against human NCI-H2228 cells xenografted in NOD.CB17-Prkdcscid/J mouse assessed as tumor regression at 1 mg/kg, po administered once daily for 2 weeks relative to control", "format": "functional"}, "[11]": {"system": "NCI-H2228", "assay": "Antitumor activity against human NCI-H2228 cells xenografted in NOD.CB17-Prkdcscid/J mouse assessed as tumor regression at 30 mg/kg, po administered once daily for 2 weeks relative to control", "format": "functional"}, "[12]": {"assay": "Toxicity in human NCI-H2228 cell xenografted NOD.CB17-Prkdcscid/J mouse assessed as change in body weight at 100 mg/kg, po administered twice daily for 14 days", "format": "organism-based", "details": "in vivo, 336 h, time 14 day"}, "[13]": {"assay": "Cmax in human NCI-H2228 cell xenografted NOD.CB17-Prkdcscid/J mouse plasma at 3 mg/kg/day for 5 days by HPLC-MS analysis", "format": "ADME, organism-based", "details": "route po, time 5 day"}, "[14]": {"assay": "Tmax in human NCI-H2228 cell xenografted NOD.CB17-Prkdcscid/J mouse plasma at 1 mg/kg/day for 5 days by HPLC-MS analysis", "format": "ADME, organism-based", "details": "route po, time 5 day"}, "[15]": {"assay": "Tmax in human NCI-H2228 cell xenografted NOD.CB17-Prkdcscid/J mouse plasma at 10 mg/kg/day for 5 days by HPLC-MS analysis", "format": "ADME, organism-based", "details": "route po, time 5 day"}, "[16]": {"assay": "Tmax in human NCI-H2228 cell xenografted NOD.CB17-Prkdcscid/J mouse tumor at 3 mg/kg/day for 5 days by HPLC-MS analysis", "format": "ADME, organism-based, Neoplasm", "details": "route po, time 5 day"}, "[17]": {"assay": "Ratio of Cmax in human NCI-H2228 cell xenografted NOD.CB17-Prkdcscid/J mouse tumor to plasma at 1 mg/kg/day for 5 days by HPLC-MS analysis", "format": "ADME, organism-based", "details": "tumor and plasma, route po, time 5 day"}, "[18]": {"assay": "Ratio of Cmax in human NCI-H2228 cell xenografted NOD.CB17-Prkdcscid/J mouse tumor to plasma at 3 mg/kg/day for 5 days by HPLC-MS analysis", "format": "ADME, organism-based", "details": "tumor and plasma, route po, time 5 day"}, "[19]": {"assay": "Ratio of Cmax in human NCI-H2228 cell xenografted NOD.CB17-Prkdcscid/J mouse tumor to plasma at 10 mg/kg/day for 5 days by HPLC-MS analysis", "format": "ADME, organism-based", "details": "tumor and plasma, route po, time 5 day"}, "[20]": {"system": "Mus musculus", "assay": "Antitumor activity against hEML4-ALK transgenic C57BL/6J mouse assessed as reduction in pulmonary tumor size at 30 to 100 mg/kg, po administered daily for 10 days and measured on day 7 and 11 by computed tomography scan analysis", "format": "functional, organism-based", "details": "dose 30-100 mg/kg, time 7-11 day"}, "[21]": {"system": "NCI-H2228", "assay": "Potentiation of pemetrexed-induced antitumor activity against human NCI-H2228 cells xenografted in NOD.CB17-Prkdcscid/J mouse assessed as reduction in tumor volume at 10 mg/kg, po administered once daily for 5 days", "format": "functional, organism-based", "details": "time 5.0 day"}, "[22]": {"system": "NCI-H2228-Luc", "assay": "Antitumor activity against human NCI-H2228-Luc cells intrahepatically xenografted in NOD.CB17-Prkdcscid/J mouse assessed as reduction in tumor burden by measuring bioluminescence emission at 30 mg/kg, po administered once daily for 3 weeks starting from 14 days post-cell inoculation and measured on day 14 by bioluminescent imaging analysis (reference value: 3.3 x 10^8 photon/sec)", "format": "functional", "details": "time 14 day"}, "[23]": {"biological_target": "EML4-ALK (Homo sapiens, UniProt Q9UM73)", "format": "cell-based, BaF3", "description": "Inhibition of EML4-ALK (unknown origin) transformed in mouse BaF3 cells by HTRF assay"}, "[24]": {"biological_target": "Tyrosine-protein kinase receptor UFO (Homo sapiens, UniProt P30530)", "sequence (P30530 whole entry)": "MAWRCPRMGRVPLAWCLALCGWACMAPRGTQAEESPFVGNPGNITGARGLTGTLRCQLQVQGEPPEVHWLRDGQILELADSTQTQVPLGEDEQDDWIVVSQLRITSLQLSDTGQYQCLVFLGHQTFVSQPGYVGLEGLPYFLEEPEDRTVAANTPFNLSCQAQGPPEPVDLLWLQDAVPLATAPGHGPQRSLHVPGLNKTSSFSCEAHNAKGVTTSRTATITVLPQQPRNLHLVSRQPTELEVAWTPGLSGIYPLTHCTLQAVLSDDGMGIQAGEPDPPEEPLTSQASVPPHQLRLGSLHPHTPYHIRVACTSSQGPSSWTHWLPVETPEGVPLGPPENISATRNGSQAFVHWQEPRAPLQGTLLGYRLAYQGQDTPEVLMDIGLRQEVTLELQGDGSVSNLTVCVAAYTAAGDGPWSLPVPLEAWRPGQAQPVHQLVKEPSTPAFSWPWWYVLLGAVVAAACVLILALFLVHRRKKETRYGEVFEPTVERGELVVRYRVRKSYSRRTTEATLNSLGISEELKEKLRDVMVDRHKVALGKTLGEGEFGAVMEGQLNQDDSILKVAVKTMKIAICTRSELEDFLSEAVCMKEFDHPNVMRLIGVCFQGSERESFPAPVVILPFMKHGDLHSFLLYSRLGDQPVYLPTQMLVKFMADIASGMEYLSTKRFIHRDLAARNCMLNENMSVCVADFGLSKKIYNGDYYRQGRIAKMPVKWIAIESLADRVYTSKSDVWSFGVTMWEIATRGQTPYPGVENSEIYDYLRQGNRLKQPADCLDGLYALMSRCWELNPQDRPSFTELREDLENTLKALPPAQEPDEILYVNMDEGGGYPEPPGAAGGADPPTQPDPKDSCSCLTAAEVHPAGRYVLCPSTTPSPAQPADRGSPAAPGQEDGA"}, "[25]": {"biological_target": "Epidermal growth factor receptor (Homo sapiens, UniProt P00533, L858R)"}, "[26]": {"biological_target": "Ephrin type-B receptor 4 (Homo sapiens, UniProt P54760)"}, "[27]": {"biological_target": "Tyrosine-protein kinase FRK (Homo sapiens, UniProt P42685)", "sequence (P42685 whole entry)": "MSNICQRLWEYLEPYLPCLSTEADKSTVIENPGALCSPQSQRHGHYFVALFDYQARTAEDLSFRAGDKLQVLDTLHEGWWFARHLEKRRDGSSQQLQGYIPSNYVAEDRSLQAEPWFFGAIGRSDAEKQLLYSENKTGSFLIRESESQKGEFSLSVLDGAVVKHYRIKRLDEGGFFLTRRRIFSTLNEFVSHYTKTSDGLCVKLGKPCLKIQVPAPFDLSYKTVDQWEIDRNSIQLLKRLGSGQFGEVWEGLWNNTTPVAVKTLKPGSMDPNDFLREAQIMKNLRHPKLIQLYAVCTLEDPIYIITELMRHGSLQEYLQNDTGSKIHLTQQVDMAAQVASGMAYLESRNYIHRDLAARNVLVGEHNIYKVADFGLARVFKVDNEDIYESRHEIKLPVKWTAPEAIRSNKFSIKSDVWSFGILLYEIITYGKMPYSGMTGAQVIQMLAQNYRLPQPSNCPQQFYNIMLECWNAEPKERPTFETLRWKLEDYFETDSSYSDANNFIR"}, "[28]": {"biological_target": "Leukocyte tyrosine kinase receptor (Homo sapiens, UniProt P29376)"}, "[29]": {"biological_target": "Proto-oncogene tyrosine-protein kinase ROS (Homo sapiens, UniProt P08922)"}, "[30]": {"biological_target": "Non-receptor tyrosine-protein kinase TNK1 (Homo sapiens, UniProt Q13470)", "sequence (Q13470 whole entry)": "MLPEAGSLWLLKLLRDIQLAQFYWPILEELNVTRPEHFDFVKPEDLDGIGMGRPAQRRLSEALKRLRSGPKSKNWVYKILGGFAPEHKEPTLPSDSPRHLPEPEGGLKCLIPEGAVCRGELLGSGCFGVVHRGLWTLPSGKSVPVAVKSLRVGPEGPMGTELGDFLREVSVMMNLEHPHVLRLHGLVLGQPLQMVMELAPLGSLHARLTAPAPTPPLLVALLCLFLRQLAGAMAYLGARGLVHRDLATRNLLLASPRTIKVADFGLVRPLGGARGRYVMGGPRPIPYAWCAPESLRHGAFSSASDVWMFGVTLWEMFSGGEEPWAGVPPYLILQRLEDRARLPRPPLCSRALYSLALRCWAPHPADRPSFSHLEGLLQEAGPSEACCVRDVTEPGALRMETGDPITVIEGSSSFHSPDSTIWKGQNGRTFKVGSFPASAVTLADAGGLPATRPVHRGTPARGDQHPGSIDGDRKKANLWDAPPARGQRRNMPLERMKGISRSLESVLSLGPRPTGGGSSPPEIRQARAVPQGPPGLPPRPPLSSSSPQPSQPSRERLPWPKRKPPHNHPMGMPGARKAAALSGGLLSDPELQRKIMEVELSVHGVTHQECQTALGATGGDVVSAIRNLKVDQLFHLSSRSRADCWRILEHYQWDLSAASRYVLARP"}, "[31]": {"biological_target": "High affinity nerve growth factor receptor (Homo sapiens, UniProt P04629)"}, "[32]": {"biological_target": "BDNF/NT-3 growth factors receptor (Homo sapiens, UniProt Q16620)", "sequence (Q16620 whole entry)": "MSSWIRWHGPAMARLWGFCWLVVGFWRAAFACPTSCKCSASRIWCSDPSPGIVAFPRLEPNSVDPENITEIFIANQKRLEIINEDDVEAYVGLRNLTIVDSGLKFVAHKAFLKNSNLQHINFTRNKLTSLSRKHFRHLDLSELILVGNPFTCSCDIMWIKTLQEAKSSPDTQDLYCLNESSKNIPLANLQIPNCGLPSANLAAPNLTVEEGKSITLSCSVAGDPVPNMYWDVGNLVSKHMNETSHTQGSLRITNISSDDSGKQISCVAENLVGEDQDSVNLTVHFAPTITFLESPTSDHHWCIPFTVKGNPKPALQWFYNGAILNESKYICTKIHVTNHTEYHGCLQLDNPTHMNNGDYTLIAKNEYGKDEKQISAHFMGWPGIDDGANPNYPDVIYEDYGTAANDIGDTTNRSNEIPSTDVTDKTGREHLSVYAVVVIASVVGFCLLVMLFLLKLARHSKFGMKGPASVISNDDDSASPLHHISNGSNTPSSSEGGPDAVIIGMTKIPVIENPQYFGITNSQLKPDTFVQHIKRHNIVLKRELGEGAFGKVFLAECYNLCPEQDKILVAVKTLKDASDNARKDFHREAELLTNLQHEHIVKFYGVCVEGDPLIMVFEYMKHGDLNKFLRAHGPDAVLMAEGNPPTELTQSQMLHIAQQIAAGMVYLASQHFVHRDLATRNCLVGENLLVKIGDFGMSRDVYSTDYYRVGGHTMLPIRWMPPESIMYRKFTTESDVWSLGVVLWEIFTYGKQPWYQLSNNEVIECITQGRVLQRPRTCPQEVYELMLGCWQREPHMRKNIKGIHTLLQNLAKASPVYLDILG"}, "[33]": {"biological_target": "Tyrosine-protein kinase Yes (Homo sapiens, UniProt P07947)", "sequence (P07947 whole entry)": "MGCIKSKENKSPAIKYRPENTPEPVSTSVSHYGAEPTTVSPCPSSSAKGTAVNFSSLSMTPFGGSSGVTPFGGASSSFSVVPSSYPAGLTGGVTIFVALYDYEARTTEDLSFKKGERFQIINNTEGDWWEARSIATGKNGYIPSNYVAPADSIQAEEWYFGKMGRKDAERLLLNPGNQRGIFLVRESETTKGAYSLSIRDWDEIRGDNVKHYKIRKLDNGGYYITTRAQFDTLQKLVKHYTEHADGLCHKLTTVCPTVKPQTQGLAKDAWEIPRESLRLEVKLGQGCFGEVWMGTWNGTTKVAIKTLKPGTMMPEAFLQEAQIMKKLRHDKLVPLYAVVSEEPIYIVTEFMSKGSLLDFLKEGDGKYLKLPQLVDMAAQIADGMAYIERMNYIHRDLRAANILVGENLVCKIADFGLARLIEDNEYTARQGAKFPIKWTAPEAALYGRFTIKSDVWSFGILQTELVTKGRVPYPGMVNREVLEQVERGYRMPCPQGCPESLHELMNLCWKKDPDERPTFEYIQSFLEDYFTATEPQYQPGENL"}, "[34]": {"assay": "in vivo", "details": "NOD.CB17-Prkdcscid/J, mouse, tumour, po, 3 mg/kg"}}, "note": "The source made the active and inactive calls. The calls are words filed in the database; no cut-off is given here.", "data": [{"smiles": "COc1cc(N2CCC(N3CCN(C)CC3)CC2)ccc1Nc1ncnc(Nc2ccccc2S(=O)(=O)C(C)C)n1", "note": "[ASP-3026]", "values": [{"measurement": "Activity", "setting": "[1]", "result": 54, "unit": "%"}, {"measurement": "Activity", "setting": "[2]", "result": 88, "unit": "%"}, {"measurement": "Activity", "setting": "[3]", "result": 52, "unit": "%"}, {"measurement": "IC50", "setting": "[4]", "result": "> 1", "unit": "µM"}, {"measurement": "TGI", "setting": "[5]", "result": "Dose-Dependent Effect"}, {"measurement": "Activity", "setting": "[6]", "result": "~20", "unit": "%"}, {"measurement": "inhibition in vivo at 3 mg/kg", "setting": "[7]", "result": "> 100", "unit": "%"}, {"measurement": "inhibition in vivo at 10 mg/kg", "setting": "[8]", "result": "> 100", "unit": "%"}, {"measurement": "inhibition in vivo at 30 mg/kg", "setting": "[9]", "result": "> 100", "unit": "%"}, {"measurement": "Activity", "setting": "[10]", "result": 0, "unit": "%"}, {"measurement": "Activity", "setting": "[11]", "result": 78, "unit": "%"}, {"measurement": "Activity", "setting": "[12]", "result": "Non-Toxic"}, {"measurement": "Cmax", "setting": "[13]", "result": 0.14, "unit": "µg/mL"}, {"measurement": "Tmax", "setting": "[14]", "result": 4, "unit": "h"}, {"measurement": "Tmax", "setting": "[15]", "result": 4, "unit": "h"}, {"measurement": "Tmax", "setting": "[16]", "result": 4, "unit": "h"}, {"measurement": "Kp at 120 h", "setting": "[17]", "result": 19}, {"measurement": "Kp at 120 h", "setting": "[18]", "result": 16}, {"measurement": "Kp at 120 h", "setting": "[19]", "result": 18}, {"measurement": "Activity", "setting": "[20]", "result": "Active"}, {"measurement": "Activity", "setting": "[21]", "result": "Active"}, {"measurement": "Activity", "setting": "[22]", "result": "4.2 10^6No_unit"}, {"measurement": "IC50", "setting": "[23]", "result": 0.01, "unit": "µM"}, {"measurement": "IC50", "setting": "[24]", "result": "> 0.1", "unit": "µM"}, {"measurement": "IC50", "setting": "[25]", "result": 0.086, "unit": "µM"}, {"measurement": "IC50", "setting": "[26]", "result": "> 1", "unit": "µM"}, {"measurement": "IC50", "setting": "[27]", "result": 0.04, "unit": "µM"}, {"measurement": "IC50", "setting": "[28]", "result": 0.061, "unit": "µM"}, {"measurement": "IC50", "setting": "[29]", "result": 0.0089, "unit": "µM"}, {"measurement": "IC50", "setting": "[30]", "result": 0.0268, "unit": "µM"}, {"measurement": "IC50", "setting": "[31]", "result": "> 1", "unit": "µM"}, {"measurement": "IC50", "setting": "[32]", "result": "> 1", "unit": "µM"}, {"measurement": "IC50", "setting": "[33]", "result": 0.0315, "unit": "µM"}, {"measurement": "Kp at 120 h", "setting": "[34]", "result": 19}]}]}
